Target: T1, human Nav1.8 (Homo sapiens, UniProt Q9Y5Y9)
T1 construct: expressed in transfected cells; host or cells: HEK293 (HEK293-Nav1.8)
Experiment: Nav1.8 sodium channels assay, QPatch 48 HTX electrophysiology in HEK293-Nav1.8 cells
Format: cell-based
Conditions: at least one set of experimental runs; read-out: average pIC50 value against Nav1.8 (converted)
Description: Human embryonic kidney […] cells (HEK293) expressing human Nav1.8, human Navβ1 and human TREK1 (HEK293-Nav1.8) were grown at 37° C., 5% CO2 in 150 cm^2 flasks. HEK293-Nav1.8 were passaged every 2-3 days when confluency reached 80-90% in to T175 cell culture flasks.
Pharmacological assessment of the invention was performed using HEK293-Nav1.8 in combination with an assay developed on the QPatch 48 HTX electrophysiological system. HEK293-Nav1.8 were prepared on the day of use by removing culture media, washing in DPBS, adding Accutase (2 ml to cover the surface, aspirate 1 ml then 1.5 min at 37° C.) followed by addition of CHO-SFM II to stop the enzyme digestion and in order to obtain a suspension of 3×10^6 cell/mL.
The invention was prepared in an extracellular solution of the following composition (in mM) NaCl 145, KCl 4, CaCl2 2, MgCl 2, HEPES 1, Glucose 10, pH 7.4 with NaOH Osmolality 300 mOsM/L. The intracellular solution was used of the following composition (in mM) CsF 115, CsCl 20, NaCl 5, EGTA 10, HEPES 10, Sucrose 20, pH 7.2 with CsOH Osmolality 310 mOsm/L.
Utilizing the voltage-clamp mode in the QPatch 48 HTX system a half inactivation state voltage protocol (V1/2) was used to determine pharmacological activity of the invention at Nav1.8 ion channels. A V1/2 protocol was utilized with the following voltage steps: a holding voltage of −100 mV was established followed by a 20 ms voltage step to 0 mV (P1), followed by an inactivating voltage step at −46 mV for 8 seconds, followed by a step to −100 mV for 20 ms, before a 20 ms step to 0 mV (P2) before returning to the holding voltage of −100 mV. This voltage protocol was repeated at a frequency of 0.07 Hz., current magnitude was quantified at the P2 step throughout the recording. Inhibition of the measured current amplitude with the invention was analyzed by fitting a 6-8 point dose-response curve allowing determination of the fifty percent inhibition concentration (IC50). Within the QPatch HTX software, P2 current was normalized according to measurements made at baseline after compound and after positive reference compound and fit to the following equation: […]
To assess current run-down over the course of the experiment vehicle-only wells were utilized and the normalized current with vehicle-only (n.IVEH) was determined. To correct the compound response for run-down, the currents were correct according the following formula: […]
Compounds of the invention are tested for activity against Nav1. 8 sodium channels in the above assay.

T1 sequence (Q9Y5Y9 whole entry): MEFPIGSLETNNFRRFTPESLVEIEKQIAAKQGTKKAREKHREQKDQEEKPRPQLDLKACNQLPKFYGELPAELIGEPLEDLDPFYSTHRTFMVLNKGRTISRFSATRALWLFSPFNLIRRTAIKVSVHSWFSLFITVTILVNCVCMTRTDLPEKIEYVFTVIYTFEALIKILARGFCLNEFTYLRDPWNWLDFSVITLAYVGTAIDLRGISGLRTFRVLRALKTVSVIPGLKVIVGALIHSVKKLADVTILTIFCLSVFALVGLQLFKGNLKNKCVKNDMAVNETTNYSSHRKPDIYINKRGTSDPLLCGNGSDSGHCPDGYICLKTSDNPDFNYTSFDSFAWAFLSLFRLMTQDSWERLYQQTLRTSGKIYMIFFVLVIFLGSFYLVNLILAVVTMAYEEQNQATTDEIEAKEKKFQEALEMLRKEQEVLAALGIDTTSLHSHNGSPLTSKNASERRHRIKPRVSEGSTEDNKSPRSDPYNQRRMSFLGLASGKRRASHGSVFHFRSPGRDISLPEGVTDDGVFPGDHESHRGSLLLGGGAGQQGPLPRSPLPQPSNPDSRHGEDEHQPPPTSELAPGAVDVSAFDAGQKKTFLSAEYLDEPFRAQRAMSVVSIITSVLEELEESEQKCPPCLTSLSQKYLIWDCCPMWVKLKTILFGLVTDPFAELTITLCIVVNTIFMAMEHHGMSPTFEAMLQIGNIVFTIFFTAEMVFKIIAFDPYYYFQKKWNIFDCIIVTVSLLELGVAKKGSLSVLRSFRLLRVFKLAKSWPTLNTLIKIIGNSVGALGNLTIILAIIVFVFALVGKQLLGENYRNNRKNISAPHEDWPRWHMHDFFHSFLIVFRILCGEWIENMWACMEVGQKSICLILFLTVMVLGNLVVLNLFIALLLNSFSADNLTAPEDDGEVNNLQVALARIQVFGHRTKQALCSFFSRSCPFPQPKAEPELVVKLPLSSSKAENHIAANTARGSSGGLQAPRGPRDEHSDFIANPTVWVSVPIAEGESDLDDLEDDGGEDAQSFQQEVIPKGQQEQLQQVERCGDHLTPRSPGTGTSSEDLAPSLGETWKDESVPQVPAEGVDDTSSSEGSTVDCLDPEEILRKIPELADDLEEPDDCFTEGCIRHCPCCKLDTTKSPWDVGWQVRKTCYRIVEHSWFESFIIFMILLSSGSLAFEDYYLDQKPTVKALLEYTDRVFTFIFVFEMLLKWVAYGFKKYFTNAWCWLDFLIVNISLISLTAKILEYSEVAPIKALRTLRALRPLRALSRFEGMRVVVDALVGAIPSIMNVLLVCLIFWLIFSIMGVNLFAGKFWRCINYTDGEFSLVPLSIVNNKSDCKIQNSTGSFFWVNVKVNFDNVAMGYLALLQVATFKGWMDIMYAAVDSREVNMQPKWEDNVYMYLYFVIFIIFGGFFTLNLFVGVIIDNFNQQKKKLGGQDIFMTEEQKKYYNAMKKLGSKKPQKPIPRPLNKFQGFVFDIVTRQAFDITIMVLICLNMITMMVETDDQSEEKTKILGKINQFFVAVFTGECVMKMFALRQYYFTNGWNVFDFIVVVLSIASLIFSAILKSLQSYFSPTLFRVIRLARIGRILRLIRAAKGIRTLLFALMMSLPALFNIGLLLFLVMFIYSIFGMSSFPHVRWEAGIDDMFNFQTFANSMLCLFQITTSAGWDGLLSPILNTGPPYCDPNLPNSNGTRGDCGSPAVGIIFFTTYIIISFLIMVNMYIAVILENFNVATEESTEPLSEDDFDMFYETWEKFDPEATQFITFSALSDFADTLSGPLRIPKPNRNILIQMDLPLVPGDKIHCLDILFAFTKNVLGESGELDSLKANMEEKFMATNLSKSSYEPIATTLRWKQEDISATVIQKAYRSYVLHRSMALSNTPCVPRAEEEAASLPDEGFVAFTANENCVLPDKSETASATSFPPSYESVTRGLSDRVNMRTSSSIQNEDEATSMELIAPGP
T1 sequence (Q07699 19-218 partner): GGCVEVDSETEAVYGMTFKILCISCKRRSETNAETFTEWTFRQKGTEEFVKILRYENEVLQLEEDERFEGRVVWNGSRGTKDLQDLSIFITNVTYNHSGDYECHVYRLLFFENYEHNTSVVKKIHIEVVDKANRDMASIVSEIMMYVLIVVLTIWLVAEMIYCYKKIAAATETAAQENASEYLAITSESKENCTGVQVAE

IC50 | Structure (SMILES)
≤ 100 nM | Cc1cc(F)ccc1N1CN(c2ccc(=O)[nH]c2C)C(=O)c2ccccc21 [Example 52, 1-(4-fluoro-2-methylphenyl)-3-(2-methyl-6-oxo-1,6-dihydropyridin-3-yl)-2,3-dihydroquinazolin-4(1H)-one]
794 to 7940 nM | Cc1cc(N2CN(c3ccc(F)cc3C)c3cc(C(F)(F)F)ccc3C2=O)cc(=O)[nH]1 [Example 53, 1-(4-fluoro-2-methylphenyl)-3-(6-methyl-2-oxo-1,2-dihydropyridin-4-yl)-7-(trifluoromethyl)-2,3-dihydroquinazolin-4(1H)-one]
794 to 7940 nM | Cc1c[nH]c(=O)cc1N1CN(c2ccc(F)cc2C)c2cc(C(F)(F)F)ccc2C1=O [Example 54, 1-(4-fluoro-2-methylphenyl)-3-(5-methyl-2-oxo-1,2-dihydropyridin-4-yl)-7-(trifluoromethyl)-2,3-dihydroquinazolin-4(1H)-one]
794 to 7940 nM | Cc1cc(F)ccc1N1CN(c2cc[nH]c(=O)c2C)C(=O)c2ccc(C(F)(F)F)cc21 [Example 55, 1-(4-fluoro-2-methylphenyl)-3-(3-methyl-2-oxo-1,2-dihydropyridin-4-yl)-7-(trifluoromethyl)-2,3-dihydroquinazolin-4(1H)-one]
≤ 100 nM | Cc1cc(F)ccc1N1CN(c2ccc(=O)[nH]c2C)C(=O)c2ccc(OC(F)(F)F)cc21 [Example 56, 1-(4-fluoro-2-methylphenyl)-3-(2-methyl-6-oxo-1,6-dihydropyridin-3-yl)-7-(trifluoromethoxy)-2,3-dihydroquinazolin-4(1H)-one]
≤ 100 nM | Cc1ccc2c(c1)N(c1ccc(F)cc1C)CN(c1ccc(=O)[nH]c1C)C2=O [Example 57, 1-(4-fluoro-2-methylphenyl)-7-methyl-3-(2-methyl-6-oxo-1,6-dihydropyridin-3-yl)-2,3-dihydroquinazolin-4(1H)-one]
126 to 631 nM | Cc1cc(F)ccc1N1CN(c2ncc(=O)[nH]c2C)C(=O)c2ccc(C(F)(F)F)cc21 [Example 58, 1-(4-fluoro-2-methylphenyl)-3-(3-methyl-5-oxo-4,5-dihydropyrazin-2-yl)-7-(trifluoromethyl)-2,3-dihydroquinazolin-4(1H)-one]
794 to 7940 nM | Cc1cc(F)ccc1N1CN(c2cc(=O)[nH]c(=O)[nH]2)C(=O)c2ccc(C(F)(F)F)cc21 [Example 59, 6-(1-(4-fluoro-2-methylphenyl)-4-oxo-7-(trifluoromethyl)-1,4-dihydroquinazolin-3(2H)-yl)pyrimidine-2,4(1H,3H)-dione]
≤ 100 nM | CCc1cc(F)ccc1N1CN(c2ccc(=O)[nH]c2C)C(=O)c2cc(C(F)(F)F)ccc21 [Example 60, 1-(2-ethyl-4-fluorophenyl)-3-(2-methyl-6-oxo-1,6-dihydropyridin-3-yl)-6-(trifluoromethyl)-2,3-dihydroquinazolin-4(1H)-one]
≤ 100 nM | Cc1cc(F)ccc1N1CN(c2c[nH]c(=O)nc2C)C(=O)c2cc(Cl)ccc21 [Example 61, 6-chloro-1-(4-fluoro-2-methylphenyl)-3-(4-methyl-2-oxo-1,2-dihydropyrimidin-5-yl)-2,3-dihydroquinazolin-4(1H)-one]
794 to 7940 nM | Cc1cc(=O)[nH]c(C)c1N1CN(c2ccc(F)cc2C(C)C)c2cc(C(F)(F)F)ccc2C1=O [Example 62, 3-(2,4-dimethyl-6-oxo-1,6-dihydropyridin-3-yl)-1-(4-fluoro-2-isopropylphenyl)-7-(trifluoromethyl)-2,3-dihydroquinazolin-4(1H)-one]
≤ 100 nM | Cc1[nH]c(=O)ccc1N1CN(c2ccc(F)cc2C(C)C)c2ncc(C(F)(F)F)cc2C1=O [Example 63]
≤ 100 nM | CCc1[nH]c(=O)ccc1N1CN(c2ccc(F)cc2C)c2ccc(C(F)(F)F)cc2C1=O [Example 64, 3-(2-ethyl-6-oxo-1,6-dihydropyridin-3-yl)-1-(4-fluoro-2-methylphenyl)-6-(trifluoromethyl)-2,3-dihydroquinazolin-4(1H)-one]
